Assay type in all cases: in vivo, rat
The test system of assay [1] is Stearoyl-CoA Desaturase 1 (SCD1). As to the kind of experiment: Liver SCD1 activity, SCD1 mRNA and LCFA-CoA measurements. The procedure: (§1) Treatment with SCD1 ASO. Five and two days before the lipoprotein secretion studies, rats received a single intra-peritoneal injection of either SCD1 or scrambled (SCR) ASO (100 mg/kg of body weight). […] In a separate set of studies, rats received intra-portal injection of either SCD1 or SCR ASO (40 mg/kg of body weight) (Gutierrez-Juarez et al., 2006) three days before the lipoprotein secretion studies.
Liver LCFA-CoA measurements. The liver was sampled and the LCFA-CoAs were extracted from the liver and measured by high-performance liquid chromatography (HPLC) as previously described (Lam et al., 2005c).
Stearoyl-CoA Desaturase 1 (SCD1) activity. CD1 activity assays were performed essentially as described (Cohen et al., 2002) using 1-[^14C]-stearoyl-CoA as a substrate. At the end of the reaction incubation long-chain acyl CoAs (LC Acyl-CoAs) were extracted and fractionated by reverse-phase HPLC as previously reported (Lam et al., 2005c). Chromatographically resolved stearoyl CoA (C18:0) and oleyl-CoA (C18:1) peaks were collected and counted in a β-scintillation counter. Protein was assayed by the bicinchoninic acid (BCA) method using a commercially available kit (Pierce Biotechnology, Rockford, Ill.) according to the manufacturer's instructions.
Gene expression. Stearoyl-CoA Desaturasel (SCD1) mRNA was measured by quantitative real-time PCR. Briefly, total RNA was extracted from either liver or fat tissue using the Trizol reagent (Invitrogen, Carlsbad, Calif.) according to the manufacturer instructions. cDNA was then synthesized from 2 μg of total RNA using the Superscript® III First-Strand kit TM? (Invitrogen, Carlsbad, Calif.). Samples of RNA in which the reverse transcriptase was omitted (no RT controls) were also included. The cDNA and no RT controls were diluted 1:20 with PCR grade water and 2 μl from each sample was used for PCR in a total volume of 20 μl. The FastStart DNA Master SYBR Green I kit (Roche Applied Science, Indianapolis, Ind.) and a LightCycler® 2 instrument (Roche Applied Science, Indianapolis, Ind.) were used in all experiments. Either 18S mRNA expression was routinely measured for normalization purposes. The primer sequences used were as follows: 5′-[…]-3′ and 5′-[…]-3′ for Scd1; and 5′-[…]-3′ and 5′-[…]-3′ for ribosomal 18S. The mRNA copy number was calculated from standard curves obtained using cloned target templates (plasmid DNA) of known copy number for each gene of interest.

For a further assay, the system named is hepatic VLDL secretion. Briefly: Lipoprotein (VLDL) secretion studies with tyloxapol; NMR particle size. As to conditions: ICV glucose. On the procedure: Lipoproteins secretion and particles concentration and size measurements. Tyloxapol (600 mg/kg; ˜1 min) was intravenously injected to inhibit endogenous lipoprotein lipase. This high dose of tyloxapol ensured complete inhibition of triglyceride clearance during VLDL secretion studies. Plasma samples were taken every 30 min for triglycerides analysis and for lipoprotein profiling. Plasma VLDL particles concentration and size were determined by nuclear magnetic resonance spectroscopy (lipoprofile-II test) at Liposcience as previously described (Otvos et al., 1991; 1992). This NMR lipoprofile-II test is based on the assumption that each plasma lipoprotein particle of a particular size gives its own characteristic lipid NMR signal. The intensity of the signal is also in proportion to the concentration of the particle. The diameter range for large, medium and small VLDL is >60 nm, 35-60 nm, and 27-35 nm, respectively.
Selective hepatic branch vagotomy. The surgeries were performed as described (Lam et al., 2005c).
as §1
Portal oleate infusion. Chronic portal catheter was implanted and 7 days were allowed for rat recovery. Oleic acid (45 mM; dissolved in 45% HBP) was infused at a rate of 40 μl/h for 2.5 h (1 h before the 90 min lipoprotein secretion studies). This dose enabled the reconstitution of hepatic oleyl-CoA levels back to normal during portal SCD1 ASO (FIG. 11c) or ICV glucose studies (FIG. 11d).

Another assay deals with high fat-fed rats. As to the kind of experiment: ICV glucose or lactate in high fat-fed rats: plasma triglycerides and VLDL secretion. On the procedure:
High fat feeding. Male Sprague-Dawley rats were fed a highly palatable high fat diet for three days. These rats developed hyperinsulinemia and hepatic insulin resistance (Morgan et al., 2004). […] In a separate set of studies, lipoprotein secretion studies were performed at the beginning of the ICV infusions.

Structures are written as SMILES.

These results are taken from US20110207694A1, “MAMMALIAN HYPOTHALAMIC NUTRIENT MODULATION OF GLUCOSE METABOLISM” (priority 2005, published 2011).

`O=C[C@H](O)[C@@H](O)[C@H](O)[C@H](O)CO` [glucose, D-glucose]: in assay [1] (ICV glucose), the “decrease in hepatic expression and activity of SCD1” value is recorded as around 70%; the “hepatic desaturation index (oleyl-CoA over stearoyl-CoA)” value is reported as “reduction in the hepatic desaturation index”; the “hepatic oleyl-CoA levels” value was “decreased the levels of oleyl-CoA”; the “hepatic stearoyl-CoA levels” value was “increasing those of stearoyl-CoA”. For the same compound, the “hepatic oleyl-CoA levels, desaturation index and SCD1 activity” value in assay [1] (after 1 h (60 min) of ICV glucose infusion) was “Significant decreases in hepatic oleyl-CoA levels, desaturation index, and SCD1 activity”. For the same compound, in the assay on hepatic VLDL secretion, the “hepatic content of triglycerides” value is on record as “increased”; the “rate of secretion of small (27-35 nm) and medium (35-60 nm) VLDL particles” value is “tended to be higher”; the “secretion of large triglyceride-rich VLDL particles (diameter >60 nm)” value is “dramatically and selectively blunted the secretion of large triglyceride-rich VLDL particles”. Also, the “average size of the secreted VLDL particles” value in the assay with hepatic VLDL secretion (NMR spectroscopy) is on record as “significant decrease in the average size of the secreted VLDL particles”. Moreover, the “rate of secretion of VLDL-triglycerides” value in the assay on hepatic VLDL secretion (tyloxapol 600 mg/kg) was “suppressed the rate of secretion of VLDL-triglycerides within 90 minutes”. Further, the “inhibitory effect on VLDL secretion in rats with resection of the hepatic branch of the vagus” value in the assay with hepatic VLDL secretion (preserved in sham-operated rats) is listed as “abolished”. Further, the “rate of appearance of VLDL-triglycerides in plasma” value with high fat-fed rats (HF rats, tyloxapol) is given as “failed to decrease the rate of appearance of VLDL-triglycerides in plasma”. Further, in the assay on high fat-fed rats (high fat-fed rats), the “circulating levels of triglycerides” value is given as “failed to decrease the circulating levels of triglycerides”.
